Where “and” joins values, the source holds several entries; their conditions need not be identical. Equal entries are not always repeated. Where two headings read alike, the source gives them in different places.
How the values were obtained:
D. magna [1] = details: Table S1; footnote not given; cited from earlier work
D. magna [2] = details: cited from earlier work
Daphnia magna = format: in vivo; details: for % inhibition, avr.: average of vessels; for #dead offspring per mother / #live offspring per mother: per vessel; for appearance of mother: vessel 3; for body burden at the end of the depuration phase: 12-day depuration; for log BAF*L5%: 21 days of exposure, assuming steady-state; for % reproductive inhibition: Fig. S10; for body burden: after 21-day exposure; for removed fraction of accumulated body burden: after 12 days of depuration
Experimental: To maximize data output, we combined chronic toxicity and bioaccumulation tests in an integrated approach where the chronic toxicity test also served as an uptake phase followed by a depuration/recovery phase (Table S3). This simultaneous bioaccumulation/chronic toxicity test was performed for BNT and DNF. Of the 10 replicates per exposure level, five animals were sampled on day 21 to measure accumulated chemical concentrations and wet weights. The remaining five were transferred to clean media without test chemicals for a 12-day depuration phase under conditions identical with the uptake phase except for the absence of test chemicals. Juvenile counts were recorded daily. At the end of the depuration period, five Daphnia were collected, weighed, and analyzed for body burden (i.e., concentration of test chemical per unit of body weight) using the extraction procedure described in Section 2.7.
For quantification of body burdens, 5 daphnids were thawed, homogenized in 5 mL Milli-Q water (IKA T-25 digital Ultra-TURRAX) and extracted twice with 2 mL of hexane. The extracts were combined, dried with Na2SO4, concentrated under a nitrogen stream, and spiked with internal standard.

[3] = after 11.96 µg/L, depuration phase day 1
[4] = after 11.96 µg/L, depuration phase day 9
[5] = after DNF 1.43 µg/L exposure, 12-day depuration phase

c1ccc2c(c1)ccc1[nH]c3ccccc3c12 [BCRB, 7H-benzo[c]carbazole]
lowest PNEC* (D. magna [1]): 0.017 µg/L

c1ccc2c(c1)ccc1sc3ccccc3c12 [BNT, benzo[b]naphtho[1,2-d]thiophene]
effect on D. magna immobilization (D. magna [2]; acute test, at water solubility): 35%
%offspring mortality (Daphnia magna; 11.96 µg/L, 21-day exposure): 28.01%
#total live offspring (Daphnia magna; 11.96 µg/L, all vessels, exposure day 9): 32
#total live offspring (Daphnia magna; 11.96 µg/L, all vessels, exposure day 12): 46
#total live offspring (Daphnia magna; 11.96 µg/L, all vessels, exposure day 13): 42
#total live offspring (Daphnia magna; 11.96 µg/L, all vessels, exposure day 14): 15
#total live offspring (Daphnia magna; 11.96 µg/L, all vessels, exposure day 15): 0
#total live offspring (Daphnia magna; 11.96 µg/L, all vessels, exposure day 16): 77
#total live offspring (Daphnia magna; 11.96 µg/L, all vessels, exposure day 19): 56
#total live offspring (Daphnia magna; 11.96 µg/L, all vessels, exposure day 20): 46
#total live offspring (Daphnia magna; 11.96 µg/L, all vessels, exposure day 21): 20
#total live offspring (Daphnia magna; 11.96 µg/L, all vessels, whole 21-day exposure): 329
average increase of live offspring (Daphnia magna; 11.96 µg/L, cumulative, exposure day 9): 3.2
average increase of live offspring (Daphnia magna; 11.96 µg/L, cumulative, exposure day 12): 8
average increase of live offspring (Daphnia magna; 11.96 µg/L, cumulative, exposure day 13): 12
average increase of live offspring (Daphnia magna; 11.96 µg/L, cumulative, exposure day 14): 14
average increase of live offspring (Daphnia magna; 11.96 µg/L, cumulative, exposure day 15): 14
average increase of live offspring (Daphnia magna; 11.96 µg/L, cumulative, exposure day 16): 23
average increase of live offspring (Daphnia magna; 11.96 µg/L, cumulative, exposure day 19): 29
average increase of live offspring (Daphnia magna; 11.96 µg/L, cumulative, exposure day 20): 34
average increase of live offspring (Daphnia magna; 11.96 µg/L, cumulative, exposure day 21): 36
% inhibition, avr. (Daphnia magna; 11.96 µg/L, live offspring, 21-day exposure): 49.3%
#average live offspring (Daphnia magna; 11.96 µg/L, per mother, 21-day exposure): 36
#dead offspring per mother (Daphnia magna; 11.96 µg/L, exposure day 15): 0
#live offspring per mother (Daphnia magna; 11.96 µg/L, exposure day 15): 0
appearance of mother (Daphnia magna; 11.96 µg/L, exposure day 5): very small/pale
appearance of mother (Daphnia magna; 11.96 µg/L, exposure day 7): very small
status of mother (Daphnia magna; 11.96 µg/L, vessel 4, exposure day 13): dead
body burden at the end of the depuration phase (Daphnia magna): below the LOQ
log BAF*L5% (Daphnia magna): 4.58 ± 0.05 and 4.58
% reproductive inhibition (Daphnia magna; BNT 4.3 µg/L, entire test (days 1-33)): 20%
% reproductive inhibition (Daphnia magna; BNT 4.3 µg/L, only depuration phase (days 21-33)): 6%
% reproductive inhibition (Daphnia magna; BNT 4.3 µg/L, only uptake phase (days 0-21)): 36%
% inhibition, avr. (Daphnia magna; BNT 4.72 µg/L, 21-day exposure): 35.5%
% reproductive inhibition (Daphnia magna; BNT 12 µg/L, entire test (days 1-33)): 32%
% reproductive inhibition (Daphnia magna; BNT 12 µg/L, only depuration phase (days 21-33)): 15%
% reproductive inhibition (Daphnia magna; BNT 12 µg/L, only uptake phase (days 0-21)): 49%
%offspring mortality (Daphnia magna; after 11.96 µg/L, 12-day depuration phase): 3.94%
#total live offspring (Daphnia magna; after 11.96 µg/L, all vessels, depuration phase day 1): 0
#total live offspring (Daphnia magna; after 11.96 µg/L, all vessels, depuration phase day 2): 61
#total live offspring (Daphnia magna; after 11.96 µg/L, all vessels, depuration phase day 5): 35
#total live offspring (Daphnia magna; after 11.96 µg/L, all vessels, depuration phase day 6): 63
#total live offspring (Daphnia magna; after 11.96 µg/L, all vessels, depuration phase day 7): 37
#total live offspring (Daphnia magna; after 11.96 µg/L, all vessels, depuration phase day 8): 1
#total live offspring (Daphnia magna; after 11.96 µg/L, all vessels, depuration phase day 9): 0
#total live offspring (Daphnia magna; after 11.96 µg/L, all vessels, depuration phase day 12): 120
#total live offspring (Daphnia magna; after 11.96 µg/L, all vessels, whole 12-day depuration phase): 317
average increase of live offspring (Daphnia magna; after 11.96 µg/L, cumulative since exposure start, depuration phase day 1): 36
average increase of live offspring (Daphnia magna; after 11.96 µg/L, cumulative since exposure start, depuration phase day 2): 48
average increase of live offspring (Daphnia magna; after 11.96 µg/L, cumulative since exposure start, depuration phase day 5): 55
average increase of live offspring (Daphnia magna; after 11.96 µg/L, cumulative since exposure start, depuration phase day 6): 68
average increase of live offspring (Daphnia magna; after 11.96 µg/L, cumulative since exposure start, depuration phase day 7): 75
average increase of live offspring (Daphnia magna; after 11.96 µg/L, cumulative since exposure start, depuration phase day 8): 76
average increase of live offspring (Daphnia magna; after 11.96 µg/L, cumulative since exposure start, depuration phase day 9): 76
average increase of live offspring (Daphnia magna; after 11.96 µg/L, cumulative since exposure start, depuration phase day 12): 100
#average live offspring (Daphnia magna; after 11.96 µg/L, per mother, 12-day depuration phase): 63
#dead offspring per mother (Daphnia magna; [3]): 0
#live offspring per mother (Daphnia magna; [3]): 0
#dead offspring per mother (Daphnia magna; after 11.96 µg/L, depuration phase day 8): 0
#dead offspring per mother (Daphnia magna; [4]): 0
#live offspring per mother (Daphnia magna; [4]): 0
body burden (Daphnia magna; CW = 4.7 μg L^–1): 50 mg kg^–1
body burden (Daphnia magna; CW = 12 μg L^–1): 150 mg kg^–1 wet weight
removed fraction of accumulated body burden (Daphnia magna): ≥ 99.98%

c1ccc2c(c1)ccc1oc3ccc4ccccc4c3c12 [DNF, dinaphtho[2,1-b:1′,2′-d]furan]
acute effects on D. magna immobilization (D. magna [2]; controlled exposure conditions): no effects were observed
body burden at the end of the depuration phase (Daphnia magna): below the LOQ
log BAF*L5% (Daphnia magna): 4.20
% reproductive inhibition (Daphnia magna; DNF 1.43 µg/L, entire test (days 1-33)): 35%
% reproductive inhibition (Daphnia magna; DNF 1.43 µg/L, only depuration phase (days 21-33)): 14%
% reproductive inhibition (Daphnia magna; DNF 1.43 µg/L, only uptake phase (days 0-21)): 57%
%offspring mortality (Daphnia magna; DNF 1.43 µg/L, 21-day exposure): 42.26%
% inhibition, avr. (Daphnia magna; DNF 1.43 µg/L, 21-day exposure): 57.5%
#average live offspring (Daphnia magna; DNF 1.43 µg/L, 21-day exposure, per surviving mother): 31
#total live offspring (Daphnia magna; DNF 1.43 µg/L, 21-day exposure, sum of all vessels): 276
body burden (Daphnia magna; CW = 1.4 μg L^–1): 6.9 mg kg^–1
removed fraction of accumulated body burden (Daphnia magna): at least 99.57%
#average live offspring (depuration phase) (Daphnia magna; [5]): 64
%offspring mortality (depuration phase) (Daphnia magna; [5]): 3.38%
#total live offspring (depuration phase) (Daphnia magna; after DNF 1.43 µg/L exposure, 12-day depuration phase, sum of all vessels): 257
observation of mother animal (depuration phase) (Daphnia magna; after DNF 1.43 µg/L exposure, vessel 8, depuration day 3): dead
